Data from PMC11424896, “Overcoming drug resistance of cancer cells by targeting the FGF1/FGFR1 axis with honokiol or FGF ligand trap” (Frontiers in Pharmacology, 2024).

Target: T1, full-length FGFR1c (Homo sapiens, UniProt P11362)
T1 construct: gene FGFR1; full-length FGFR1c, pcDNA3.1, stably transfected in U2OS cells (U2OSR1)
Assay: Western blot of FGFR phosphorylation (pTyr653/[…]) in U2OSR1 cells
Type: cell-based
Conditions: 30 µM honokiol pre-treatment, then 10 ng/mL FGF1 with heparin, 15 min; serum-starved cells

T1 sequence (P11362 22-822): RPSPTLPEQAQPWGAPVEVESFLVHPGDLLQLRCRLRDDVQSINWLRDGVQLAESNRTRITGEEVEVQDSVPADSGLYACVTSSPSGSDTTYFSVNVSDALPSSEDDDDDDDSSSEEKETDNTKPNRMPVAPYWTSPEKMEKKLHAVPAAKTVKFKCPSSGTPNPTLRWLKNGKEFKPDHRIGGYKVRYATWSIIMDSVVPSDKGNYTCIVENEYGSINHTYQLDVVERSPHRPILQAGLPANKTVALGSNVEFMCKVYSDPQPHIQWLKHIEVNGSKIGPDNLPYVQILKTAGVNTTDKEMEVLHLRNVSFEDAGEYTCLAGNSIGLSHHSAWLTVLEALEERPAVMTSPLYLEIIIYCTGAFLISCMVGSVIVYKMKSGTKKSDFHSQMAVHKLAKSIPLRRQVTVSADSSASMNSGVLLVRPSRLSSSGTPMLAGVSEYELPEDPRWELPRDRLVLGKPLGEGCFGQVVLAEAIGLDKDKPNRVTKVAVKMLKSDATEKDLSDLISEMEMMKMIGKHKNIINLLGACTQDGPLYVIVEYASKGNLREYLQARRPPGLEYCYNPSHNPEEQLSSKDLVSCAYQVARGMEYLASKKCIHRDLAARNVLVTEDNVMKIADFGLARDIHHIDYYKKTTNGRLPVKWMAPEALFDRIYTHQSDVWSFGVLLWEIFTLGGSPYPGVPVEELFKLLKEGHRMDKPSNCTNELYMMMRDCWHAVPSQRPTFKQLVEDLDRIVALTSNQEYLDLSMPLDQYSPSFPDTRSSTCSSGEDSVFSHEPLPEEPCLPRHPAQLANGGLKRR

With C=CCc1ccc(O)c(-c2ccc(O)c(CC=C)c2)c1 [honokiol] the “p-FGFR inhibition at 30 μM” value was “in cells treated with honokiol, FGF1 did not induce activation of either FGFR”.
